Consider 66 compounds from ChEMBL document CHEMBL3045165, “3D-QSAR study of multi-target-directed AchE inhibitors based on autodocking” (Med Chem Res, 2012).

In the experiment the target is Acetylcholinesterase (Homo sapiens, UniProt P22303). Put plainly: Inhibition of AChE (unknown origin) using acetylthiocholine chloride as substrate after 15 min by Ellman's method.
Acetylcholinesterase, sequence (P22303 whole entry): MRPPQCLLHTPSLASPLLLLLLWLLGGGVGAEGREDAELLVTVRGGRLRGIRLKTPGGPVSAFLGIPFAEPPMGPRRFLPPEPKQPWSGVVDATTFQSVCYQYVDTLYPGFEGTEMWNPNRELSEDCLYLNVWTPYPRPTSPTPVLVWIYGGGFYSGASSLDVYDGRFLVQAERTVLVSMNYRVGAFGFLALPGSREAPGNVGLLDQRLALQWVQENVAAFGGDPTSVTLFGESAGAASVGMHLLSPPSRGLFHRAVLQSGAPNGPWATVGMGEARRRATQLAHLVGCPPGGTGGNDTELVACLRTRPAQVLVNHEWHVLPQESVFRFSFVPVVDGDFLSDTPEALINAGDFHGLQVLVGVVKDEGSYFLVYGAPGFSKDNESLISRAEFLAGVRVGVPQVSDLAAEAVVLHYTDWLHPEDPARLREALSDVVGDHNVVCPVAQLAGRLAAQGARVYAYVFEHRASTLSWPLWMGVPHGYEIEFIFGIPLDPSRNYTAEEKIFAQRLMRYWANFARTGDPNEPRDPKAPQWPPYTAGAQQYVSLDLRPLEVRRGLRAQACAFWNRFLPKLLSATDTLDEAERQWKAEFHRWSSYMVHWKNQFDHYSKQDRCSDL
Consider `CCOC(=O)C1=C(C)Oc2nc3c(c(N)c2[C@H]1c1cccc([N+](=O)[O-])c1)CCCC3`, for which half-maximal inhibition (IC50) was put at 1.91 µM. In other words, the single-digit micromolar range. As for `CCOC(=O)C1=C(C)Oc2nc3c(c(N)c2[C@H]1c1ccccc1)CCC3`, half-maximal inhibition (IC50) was put at 3.89 µM. This IC50 is about 2-fold higher than that of the compound before. As for `CCOC(=O)C1=C(C)Oc2nc3c(c(N)c2[C@H]1c1cccnc1OC)CCCC3`, the IC50 is 3.89 µM. In turn, `CCOC(=O)C1=C(C)Oc2nc3c(c(N)c2[C@H]1c1cccnc1Br)CCCC3` gave an IC50 of 1.86 µM. Turning to `CCOC(=O)C1=C(C)Oc2nc3c(c(N)c2[C@H]1c1cccnc1Cl)CCCC3`, half-maximal inhibition (IC50) was put at 2.14 µM. Next, `CC1(C)CC(=O)C2=C(C1)Oc1nc3c(c(N)c1[C@H]2c1ccccc1)CCCC3`: 49 µM; `CC1(C)CC(=O)C2=C(C1)Oc1nc3c(c(N)c1[C@H]2c1ccc(F)cc1)CCCC3`: 69.2 µM; `CC1(C)CC(=O)C2=C(C1)Oc1nc3c(c(N)c1[C@H]2c1ccccc1C(F)(F)F)CCCC3`: 17.8 µM. The figure for `CC1(C)CC(=O)C2=C(C1)Oc1nc3c(c(N)c1[C@H]2c1cccc([N+](=O)[O-])c1)CCCC3` is 12 µM; for `CC1(C)CC(=O)C2=C(C1)Oc1nc3c(c(N)c1[C@H]2c1ccc([N+](=O)[O-])cc1)CCCC3` it is 93.3 µM; for `Cc1ccc([C@H]2C3=C(CC(C)(C)CC3=O)Oc3nc4c(c(N)c32)CCCC4)cc1` it is 51.3 µM. `COc1ccccc1[C@H]1C2=C(CC(C)(C)CC2=O)Oc2nc3c(c(N)c21)CCCC3` gave an IC50 of 7.08 µM. Next, `COc1cccc([C@H]2C3=C(CC(C)(C)CC3=O)Oc3nc4c(c(N)c32)CCCC4)c1`: 21.4 µM. For the compound `COc1ccc([C@H]2C3=C(CC(C)(C)CC3=O)Oc3nc4c(c(N)c32)CCCC4)cc1`, half-maximal inhibition (IC50) was put at 40.7 µM. Regarding `CCOC(=O)C1=C(C)Nc2nc3c(c(N)c2[C@H]1c1ccccc1)CCCC3`, the midpoint of inhibition, the IC50, lay at 0.0794 µM.

Consider `CCOC(=O)C1=C(C)Nc2nc3c(c(N)c2[C@H]1c1ccc([N+](=O)[O-])cc1)CCCC3`, for which 0.603 µM corresponded to half-maximal inhibition (IC50).

`CCOC(=O)C1=C(C)Nc2nc3c(c(N)c2[C@H]1c1ccc(C)cc1)CCCC3` had a concentration for half-maximal inhibition (IC50) of 0.0912 µM. Consider `CC1(C)CC(=O)C2=C(C1)Nc1nc3c(c(N)c1[C@H]2c1ccccc1)CCCC3`, for which it took 0.324 µM to reach half-maximal inhibition (IC50). In the case of `CC1(C)CC(=O)C2=C(C1)Nc1nc3c(c(N)c1[C@H]2c1ccc(F)cc1)CCCC3`, the half-maximal inhibitory concentration (IC50) is 0.537 µM.

`Cc1ccc([C@H]2C3=C(CC(C)(C)CC3=O)Nc3nc4c(c(N)c32)CCCC4)cc1` showed an IC50 of 0.229 µM. The compound `COc1ccc([C@H]2C3=C(CC(C)(C)CC3=O)Nc3nc4c(c(N)c32)CCCC4)cc1` showed an IC50 of 0.219 µM. This IC50 and that of the compound before are within 1.5-fold of each other. Turning to `CC1(C)CC(=O)C2=C(C1)Nc1nc3c(c(N)c1[C@H]2c1ccncc1)CCCC3`, the IC50 is 0.603 µM.

For `CCOC(=O)c1c(C)nc2nc3c(c(N)c2c1-c1ccc(C)cc1)CCCCC3`, the midpoint of inhibition, the IC50, lay at 12.9 µM. This IC50 is about 21-fold higher than that of the compound before.

With `CCOC(=O)c1c(C)nc2nc3c(c(N)c2c1-c1ccccc1OC)CCCCC3`, half-maximal inhibition (IC50) required 21.9 µM. Compared with the last compound, the IC50 is about 1.7-fold higher. For the compound `CCOC(=O)c1c(C)nc2nc3c(c(N)c2c1-c1ccc(Cl)cc1)CCCCC3`, the IC50 is 19.1 µM.

On to `CCOC(=O)c1c(C)nc2nc3c(c(N)c2c1-c1cccc([N+](=O)[O-])c1)CCCCC3`, for which 14.1 µM corresponded to half-maximal inhibition (IC50). As to `CCOC(=O)c1c(C)nc2nc3c(c(N)c2c1-c1ccccc1)CCCCCC3`, it took 17 µM to reach half-maximal inhibition (IC50). Next, `CCOC(=O)c1c(C)nc2nc3c(c(N)c2c1-c1ccc(OC)cc1)CCCCCC3`: 17 µM; `CCOC(=O)C1=C(C)Oc2nc3c(c(N)c2[C@H]1c1ccncc1)CCC3`: 6.61 µM; `CCOC(=O)C1=C(C)Oc2nc3c(c(N)c2[C@H]1c1cccs1)CCC3`: 27.5 µM. Turning to `CCOC(=O)C1=C(C)Oc2nc3c(c(N)c2[C@H]1c1ccc(OC)cc1)CCCC3`, the half-inhibitory concentration (IC50) was 0.871 µM. This IC50 lies about 32-fold lower than the previous one. Next, `CCOC(=O)C1=C(C)Oc2nc3c(c(N)c2[C@H]1c1ccncc1)CCCC3`: 3.02 µM; `CCOC(=O)C1=C(C)Oc2nc3c(c(N)c2[C@H]1c1cccnc1)CCCC3`: 7.08 µM; `CCOC(=O)C1=C(C)Oc2nc3c(c(N)c2[C@H]1c1cccs1)CCCC3`: 24.5 µM. Regarding `CCOC(=O)C1=C(C)Oc2nc3c(c(N)c2[C@H]1c1ccco1)CCCC3`, the IC50 was 1.7 µM. Regarding `CCOC(=O)C1=C(C)Oc2nc3c(c(N)c2[C@H]1c1ccncc1)CCCCC3`, the IC50 is 8.51 µM. Compound `CCOC(=O)C1=C(C)Oc2nc3c(c(N)c2[C@H]1c1cccnc1)CCCCC3` gave an IC50 of 32.4 µM. `CCOC(=O)C1=C(C)Oc2nc3c(c(N)c2[C@H]1c1cccs1)CCCCC3` showed an IC50 of 14.5 µM. `CCOC(=O)C1=C(C)Oc2nc3c(c(N)c2[C@H]1c1cccc(OC)c1)CCC3` gave a concentration for half-maximal inhibition (IC50) of 24 µM. The figure for `CCOC(=O)C1=C(C)Oc2nc3c(c(N)c2[C@H]1c1ccc(OC)c(OC)c1)CCC3` is 26.9 µM. Consider `CCOC(=O)C1=C(C)Oc2nc3c(c(N)c2[C@H]1c1cccc(OC)c1)CCCC3`, for which the concentration for half-maximal inhibition (IC50) was 7.76 µM. Compared with the last compound, the IC50 is about 3.5-fold lower.

Regarding `CCOC(=O)C1=C(C)Oc2nc3c(c(N)c2[C@H]1c1ccc(OC)c(OC)c1)CCCC3`, 4.57 µM corresponded to half-maximal inhibition (IC50). `CCOC(=O)C1=C(C)Oc2nc3c(c(N)c2[C@H]1c1cccc(OC)c1)CCCCC3`: the half-maximal inhibitory concentration (IC50) was 12.9 µM.

In the case of `CCOC(=O)C1=C(C)Oc2nc3c(c(N)c2[C@H]1c1ccccc1OC)CCCCC3`, the concentration for half-maximal inhibition (IC50) was 20.9 µM. Next, `CCOC(=O)C1=C(C)Oc2nc3c(c(N)c2[C@H]1c1ccc(OC)c(OC)c1)CCCCC3`: 33.1 µM. In turn, `CCOC(=O)C1=C(C)Oc2nc3c(c(N)c2[C@H]1c1ccccc1)CCCC3` gave an IC50 of 1.55 µM. Turning to `CCOC(=O)C1=C(C)Oc2nc3c(c(N)c2[C@H]1c1ccc(C)cc1)CCCC3`, the IC50 is 1.82 µM.

In turn, `CCOC(=O)C1=C(C)Oc2nc3c(c(N)c2[C@H]1c1ccc(Cl)cc1)CCCC3` had an IC50 of 1.95 µM.

For `CCOC(=O)C1=C(C)Oc2nc3c(c(N)c2[C@H]1c1ccc(C#N)cc1)CCCC3`, the half-maximal inhibitory concentration (IC50) is 3.47 µM. `CCOC(=O)c1c(C)nc2nc3c(c(N)c2c1-c1ccc(OC)cc1)CCCCC3` showed an IC50 of 1.35 µM. `CCOC(=O)c1c(C)nc2nc3c(c(N)c2c1-c1ccc(OC)c(OC)c1)CCCC3` had an IC50 of 1.29 µM. `CCOC(=O)c1c(C)nc2nc3c(c(N)c2c1-c1ccc(F)cc1)CCCC3` gave an IC50 of 0.708 µM. `CCOC(=O)c1c(C)nc2nc3c(c(N)c2c1-c1ccc(F)cc1)CCCCC3` showed a half-maximal inhibitory concentration (IC50) of 5.37 µM. This IC50 is about 7.6-fold higher than that of the compound before.

`CCOC(=O)c1c(C)nc2nc3c(c(N)c2c1-c1ccc(Cl)cc1)CCCC3` showed a 50% inhibitory concentration (IC50) of 1.29 µM. `CCOC(=O)c1c(C)nc2nc3c(c(N)c2c1-c1ccc(OC)c(OC)c1)CCCCC3` gave a half-inhibitory concentration (IC50) of 6.46 µM. Against the preceding compound, the IC50 is about 5-fold higher. Compound `Cc1nc2nc3c(c(N)c2c(-c2ccccc2)c1C(=O)OC(C)C)CCCC3` gave an IC50 of 1.2 µM.

On to `CCOC(=O)c1c(C)nc2nc3c(c(N)c2c1-c1ccccc1)CCCC3`, for which it took 0.813 µM to reach half-maximal inhibition (IC50). Next, `CCOC(=O)c1c(C)nc2nc3c(c(N)c2c1-c1ccccc1)CCCCC3`: 20.9 µM. `CCOC(=O)c1c(C)nc2nc3c(c(N)c2c1-c1ccc(OC)cc1)CCCC3` had an IC50 of 8.91 µM. `CCOC(=O)c1c(C)nc2nc3c(c(N)c2c1-c1ccncc1)CCC3` gave an IC50 of 8.13 µM. For the compound `CCOC(=O)c1c(C)nc2nc3c(c(N)c2c1-c1ccncc1)CCCC3`, the half-maximal inhibitory concentration (IC50) was 1.41 µM. `CCOC(=O)c1c(C)nc2nc3c(c(N)c2c1-c1ccccc1)CCC3`: the IC50 is 12 µM. With `CCOC(=O)c1c(C)nc2nc3c(c(N)c2c1-c1ccc(OC)cc1)CCC3`, the IC50 was 13.8 µM.

`CCOC(=O)c1c(C)nc2nc3c(c(N)c2c1-c1cccc(OC)c1)CCCC3` had a half-maximal inhibitory concentration (IC50) of 1.2 µM.

Compound `CCOC(=O)c1c(C)nc2nc3c(c(N)c2c1-c1cccc([N+](=O)[O-])c1)CCCC3` showed an IC50 of 0.933 µM. Regarding `CCOC(=O)c1c(C)nc2nc3c(c(N)c2c1-c1ccncc1)CCCCC3`, the IC50 was 5.13 µM.
